Measured values taken from the supplement of paper PMC10307832.

How the values were obtained:
Test in all cases: relative viability (nuclei count vs DMSO), 5 days (fraction); higher = more cells survive
[1] = compound: CC1CC(=O)N(C2=CN=C(N=C2N1C3CCCC3)NC4=C(C=C(C=C4)C(=O)NC5CCN(CC5)C)OC)C [NPK76-II-72-1] + CCNC(=O)c1noc(-c2cc(C(C)C)c(O)cc2O)c1-c1ccc(CN2CCOCC2)cc1 [Luminespib] (partner 0.01 µM)
Summary of the method: (§1)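 Lung cancer cell lines were seeded in 1536-well plates and dosed by pin tool the next day, with either a single drug or a fixed anchor-drug dose combined with five library-drug doses (not always all listed) spaced in √10 steps. Five days later, one step fixed the cells and stained their nuclei (final 0.05% Triton X-100, 1% formaldehyde, 1 ug/ml Hoechst), and nuclei were counted on 4× images. Relative viability is the nuclei count in treated wells divided by the count in vehicle wells, and each value is the median of duplicate plates.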

[2] = compound: CC1CC(=O)N(C2=CN=C(N=C2N1C3CCCC3)NC4=C(C=C(C=C4)C(=O)NC5CCN(CC5)C)OC)C [NPK76-II-72-1] + O=C(c1cc(Cc2n[nH]c(=O)c3ccccc23)ccc1F)N1CCN(C(=O)C2CC2)CC1 [Olaparib] (partner 8 µM)
Summary of the method: as §1

[3] = compound: CC[C@@H]1C(=O)N(C)c2cnc(Nc3ccc(C(=O)NC4CCN(C)CC4)cc3OC)nc2N1C1CCCC1 [BI-2536] + CS(=O)(=O)N1CCN(Cc2cc3nc(-c4cccc5[nH]ncc45)nc(N4CCOCC4)c3s2)CC1 [Pictilisib] (partner 1 µM)
Summary of the method: as §1

[4] = compound: CC[C@@H]1C(=O)N(C)c2cnc(Nc3ccc(C(=O)NC4CCN(C)CC4)cc3OC)nc2N1C1CCCC1 [BI-2536] + NC(=O)Nc1cc(-c2cccc(F)c2)sc1C(=O)N[C@H]1CCCNC1 [AZD7762] (partner 0.2 µM)
Summary of the method: as §1

| Cell Line | relative viability ([1]; first compound 0.01 µM) | relative viability ([1]; first compound 0.03162 µM) | relative viability ([1]; first compound 0.1 µM) | relative viability ([1]; first compound 0.3162 µM) | relative viability ([1]; first compound 1 µM) | relative viability ([2]; first compound 0.01 µM) | relative viability ([2]; first compound 0.03162 µM) | relative viability ([2]; first compound 0.1 µM) | relative viability ([2]; first compound 0.3162 µM) | relative viability ([2]; first compound 1 µM) | relative viability ([3]; first compound 0.01 µM) | relative viability ([3]; first compound 0.03162 µM) | relative viability ([3]; first compound 0.1 µM) | relative viability ([3]; first compound 0.3162 µM) | relative viability ([3]; first compound 1 µM) | relative viability ([4]; first compound 0.01 µM) | relative viability ([4]; first compound 0.03162 µM) | relative viability ([4]; first compound 0.1 µM) | relative viability ([4]; first compound 0.3162 µM) | relative viability ([4]; first compound 1 µM) |
| --- | --- | --- | --- | --- | --- | --- | --- | --- | --- | --- | --- | --- | --- | --- | --- | --- | --- | --- | --- | --- |
| 201T | 1.05 | 1.04 | 0.998 | 1.04 | 1.09 | 0.792 | 0.826 | 0.836 | 0.851 | 0.839 | 0.686 | 0.618 | 0.586 | 0.253 | 0.308 | 0.609 | 0.647 | 0.588 | 0.33 | 0.255 |
| NCI-H2170 | 0.63 | 0.403 | 0.586 | 0.548 | 0.61 | 0.57 | 0.572 | 0.666 | 0.381 | 0.656 | 0.342 | 0.295 | 0.192 | 0.184 | 0.168 | 0.854 | 0.83 | 0.184 | 0.146 | 0.2 |
| NCI-H460 | 0.0406 | 0.0404 | 0.0346 | 0.0272 | 0.0329 | 0.441 | 0.457 | 0.514 | 0.426 | 0.455 | 0.276 | 0.375 | 0.33 | 0.0337 | 0.0494 | 0.724 | 0.649 | 0.473 | 0.0346 | 0.0318 |
| HCC-15 | 0.226 | 0.256 | 0.275 | 0.16 | 0.318 | 0.679 | 0.766 | 0.639 | 0.689 | 0.741 | 0.746 | 0.795 | 0.365 | 0.124 | 0.117 | 0.653 | 0.966 | 1.03 | 0.156 | 0.149 |
| ABC-1 |  | 0.389 |  | 0.543 | 0.522 | 0.606 | 0.537 | 0.764 | 0.803 | 1.34 | 0.81 | 0.609 | 0.214 | 0.31 | 0.243 | 0.576 | 0.871 |  | 0.922 | 0.301 |
| LCLC-103H | 0.9 | 1.05 | 0.919 | 1.03 | 1.01 |  | 0.744 | 0.74 | 0.796 | 0.759 | 0.585 | 0.568 | 0.508 | 0.711 | 0.144 | 0.804 | 0.826 | 0.605 | 0.244 | 0.169 |
| NCI-H441 | 0.35 | 0.348 | 0.299 | 0.425 | 0.536 | 0.476 | 0.598 | 0.648 | 0.589 | 0.573 | 0.464 | 0.211 | 0.138 | 0.17 | 0.117 | 0.977 | 1.21 | 0.228 | 0.174 | 0.21 |
| EPLC-272H | 0.161 |  | 0.313 | 0.264 | 0.58 | 0.831 | 0.825 | 0.782 | 0.732 | 0.765 | 0.343 | 0.256 |  | 0.233 | 0.151 | 0.198 | 0.231 | 0.0832 | 0.0551 | 0.0884 |
